ChEMBL document CHEMBL1255321, “Prevalence of the erm(T) gene in clinical isolates of erythromycin-resistant group D Streptococcus and Enterococcus” (2008)
In brackets after ≈: the same amount, converted by molar mass. Activity calls are given as the source filed them. No cut-off for these calls is given here.

How the values were obtained:
[1] = system: Streptococcus sp.; assay: Antimicrobial activity against Group D Streptococcus sp. clinical isolates expressing erm(T) gene by Etest; format: functional
[2] = system: Streptococcus sp.; assay: Antimicrobial activity against Group D Streptococcus sp. clinical isolates assessed as resistant isolates; format: functional
[3] = system: Streptococcus sp.; assay: Antimicrobial activity against erythromycin-resistant Group D Streptococcus sp. clinical isolates expressing erm(T) gene by Etest; format: functional
[4] = system: Enterococcus faecalis; assay: Antimicrobial activity against Group D Enterococcus faecalis clinical isolate expressing erm(B) gene by disk diffusion method; format: functional, organism-based
[5] = system: Enterococcus faecium; assay: Antimicrobial activity against Group D Enterococcus faecium clinical isolate expressing erm(B) and erm(T) genes by disk diffusion method; format: functional, organism-based
[6] = system: Enterococcus faecium; assay: Antimicrobial activity against Group D Enterococcus faecium clinical isolate expressing erm(B) gene by disk diffusion method; format: functional, organism-based

Compound	MIC [1] [µg/mL]	Activity [2] [%]	MIC [3] [µg/mL]	Activity [4]	Activity [5]	Activity [6]
CCC[C@@H]1C[C@@H](C(=O)N[C@@H]([C@H]2O[C@H](SC)[C@H](O)[C@@H](O)[C@H]2O)[C@H](C)Cl)N(C)C1 [CLINDAMYCIN]	0.125 (≈ 0.294 µM)	33	–	–	–	–
CC[C@H]1OC(=O)[C@H](C)[C@@H](O[C@H]2C[C@@](C)(OC)[C@@H](O)[C@H](C)O2)[C@H](C)[C@@H](O[C@@H]2O[C@H](C)C[C@H](N(C)C)[C@H]2O)[C@](C)(O)C[C@@H](C)C(=O)[C@H](C)[C@@H](O)[C@]1(C)O [ERYTHROMYCIN]	0.064 (≈ 0.0872 µM)	54	≥ 256	inactive	inactive	inactive
